Legend:
ob/ob and db/db mice = conditions: following 8 weeks of administration; cited from earlier work
[1] = molecular target: recombinant human AMPK complex 7 (containing α2β1γ1) (Homo sapiens, UniProt P54646+Q9Y478); assay: in vitro AMPK activation assay (AMPKSAMSF); format: biochemical; conditions: for EC50: inflection point reflecting 50% of the maximum activation, human AMPK Complex 7; for Emax: recombinant human AMPK complex 7 (α2β1γ1), 10-point titration expressed as % maximum AMP activation
Experimental: The recombinant human AMPK complex 1 (containing α1β1γ1) or AMPK complex 7 (containing α2β1γ1) was obtained from baculovirus expression system. Recombinant viruses were generated by cotransfection of AMPK/pBacPak9 clones with Baculogold baculovirus DNA (Pharmingen) in spodoptera frugiperda 21 cells according to the manufacturer's instructions. Each round of virus amplification was performed for 5 days in Grace's medium containing 10% serum. Virus that had been subjected to three rounds of amplification was used for all protein production procedures. To express the AMPK complex, sf21 cells were adapted to serum free medium (SF900 II, Invitrogen) by sequential dilution from serum containing stocks into SF900II medium and maintained in shaker flasks at 90 rpm at 27° C. The recombinant AMPK enzyme complex was produced by triple infection, one recombinant virus for each of the subunits, in sf21 cells under serum free conditions. Cells were infected in log phase, 1×10^6 cells/ml, at a multiplicity of infection of ˜5. Cells were harvested by centrifugation at 10,000×g for 15 minutes after 72 hours of infection with viruses. The insect cell pellet from 2 liters of culture was resuspended in 50 ml lysis buffer (20 mM Tris-HCl, 50 mM NaCl, 50 mM NaF, 30 mM Na PPi, 0.25 M sucrose, 10 mM ZnCl2, 2 mM DTT, 0.4 mg/ml digitonin) and subjected to two cycles of freeze-thaw lysis in a dry-ice ethanol bath. Insoluble material was removed by centrifugation at 10,000×g and the supernatant was fractionated with use of polyethylene glycol (PEG). The protein fraction precipitating between 2.5 and 6% PEG was used for further purification using a Blue-Sepharose step (Zhou et al, J. Clin. Invest. 108, 1167-1174, 2001).
The in vitro AMPK activation assay is performed in a volume of 30 μl in a 384-well plate. Enzyme reactions were assembled in the microtiter plate by adding 15 μl of 2× enzyme in assay buffer (20 mM HEPES, pH 7.3, 5 mM MgCl2, 3 mM DTT, 0.01% Brij 35 and CamK Kinase, to activate AMPK) to wells which contained either DMSO or compound. The reaction was initiated with the addition of 15 μl 2× substrate mixture containing 200 μM ATP, and 3.0 μM fluorescently labeled SAMS (5-FAM-HMRSAMSGLHLVKRR-COOH) in assay buffer. After 45-minute incubation at 25° C., the reaction was stopped by the addition of 70 μl stop buffer (100 mM HEPES, pH 7.3, 40 mM EDTA, 0.015% Brij 35). Phosphorylated 5-FAM SAMS product is assessed using a Caliper EZ Reader LabChip microfluidics reader. Product conversion is determined by calculating the peak heights of the substrate and product and reporting the product/(product+substrate) peak ratio. The 10-point titration data were expressed as % maximum AMP activation. The results were plotted using 4 parameter fit and the inflection point reflecting 50% of the maximum activation was reported as the EC50.

Chain of recombinant human AMPK complex 7 (containing α2β1γ1) (P54646 whole entry): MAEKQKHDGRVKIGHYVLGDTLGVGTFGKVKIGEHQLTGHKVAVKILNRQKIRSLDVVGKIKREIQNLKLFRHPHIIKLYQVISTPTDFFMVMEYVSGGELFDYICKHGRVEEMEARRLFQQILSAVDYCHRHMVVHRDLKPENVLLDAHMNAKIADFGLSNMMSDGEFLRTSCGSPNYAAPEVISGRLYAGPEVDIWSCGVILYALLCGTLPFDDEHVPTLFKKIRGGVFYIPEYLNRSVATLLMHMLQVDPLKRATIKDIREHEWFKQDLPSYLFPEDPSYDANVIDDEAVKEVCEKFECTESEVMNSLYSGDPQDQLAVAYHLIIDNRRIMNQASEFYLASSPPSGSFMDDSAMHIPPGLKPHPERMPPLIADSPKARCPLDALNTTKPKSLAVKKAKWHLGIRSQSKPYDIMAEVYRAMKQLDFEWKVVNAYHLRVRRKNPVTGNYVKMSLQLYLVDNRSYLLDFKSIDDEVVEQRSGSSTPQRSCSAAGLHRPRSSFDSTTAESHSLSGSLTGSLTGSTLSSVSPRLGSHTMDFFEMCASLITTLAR
Chain of recombinant human AMPK complex 7 (containing α2β1γ1) (Q9Y478 whole entry): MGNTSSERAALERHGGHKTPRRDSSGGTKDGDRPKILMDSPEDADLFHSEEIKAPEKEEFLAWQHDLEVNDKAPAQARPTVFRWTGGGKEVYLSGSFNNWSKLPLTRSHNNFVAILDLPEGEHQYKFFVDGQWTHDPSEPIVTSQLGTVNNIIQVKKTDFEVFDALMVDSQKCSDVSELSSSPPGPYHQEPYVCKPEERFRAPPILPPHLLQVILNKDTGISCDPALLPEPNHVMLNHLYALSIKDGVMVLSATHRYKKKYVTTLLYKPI
Chain of recombinant human AMPK complex 7 (containing α2β1γ1) (P54619 whole entry partner): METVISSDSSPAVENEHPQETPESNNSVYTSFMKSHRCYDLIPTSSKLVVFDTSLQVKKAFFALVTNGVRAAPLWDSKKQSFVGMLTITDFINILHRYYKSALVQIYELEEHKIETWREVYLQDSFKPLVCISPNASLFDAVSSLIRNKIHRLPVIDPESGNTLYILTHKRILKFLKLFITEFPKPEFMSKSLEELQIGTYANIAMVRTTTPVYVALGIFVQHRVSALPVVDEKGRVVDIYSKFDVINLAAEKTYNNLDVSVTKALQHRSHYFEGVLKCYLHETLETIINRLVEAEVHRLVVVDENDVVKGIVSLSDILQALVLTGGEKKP

Row | EC50 [1] [nM] | Emax [1] [%] | Structure (SMILES) | blood glucose reduction (ob/ob and db/db mice) [%]
1 |  |  | NC(=O)c1ncn([C@@H]2O[C@H](CO)[C@@H](O)[C@H]2O)c1N [AICAR] | 35
2 | 16 | 188 | OC[C@H]1OC[C@@H](Oc2nc3nc(-c4ccc(-c5ccc(-n6cccn6)nc5)cc4)c(Cl)cc3[nH]2)[C@@H]1O [Example 1, (2R,3R,4R)-4-[[6-chloro-5-[4-(6-pyrazol-1-yl-3-pyridyl)phenyl]-1H-imidazo[4,5-b]pyridin-2-yl]oxy]-2-(hydroxymethyl)tetrahydrofuran-3-ol] | 
3 | 4 | 315 | OC[C@H]1OC[C@@H](Oc2nc3nc(-c4ccc(-c5ccc(-n6cccn6)cc5)cc4)c(Cl)cc3[nH]2)[C@@H]1O [Example 2] | 
4 | 13 | 338 | OC[C@H]1OC[C@@H](Oc2nc3nc(-c4ccc(-c5ccccc5)cc4)c(Cl)cc3[nH]2)[C@@H]1O [Example 3] | 
5 | 20 | 206 | OC[C@H]1OC[C@@H](Oc2nc3nc(-c4ccc(-c5ccc(-n6nccn6)cc5)cc4)c(Cl)cc3[nH]2)[C@@H]1O [Example 4, (2R,3R,4R)-4-[[6-chloro-5-[4-[4-(triazol-2-yl)phenyl]phenyl]-1H-imidazo[4,5-b]pyridin-2-yl]oxy]2-(hydroxymethyl)tetrahydrofuran-3-ol] | 
6 | 2 | 261 | OC[C@H]1OC[C@@H](Oc2nc3nc(-c4ccc(-c5ccc(-n6cncn6)cc5)cc4)c(Cl)cc3[nH]2)[C@@H]1O [Example 5, (2R,3R,4R)-4-[[6-chloro-5-[4-[4-(1,2,4-triazol-1-yl)phenyl]phenyl]-1H-imidazo[4,5-b]pyridin-2-yl]oxy]-2-(hydroxymethyl)tetrahydrofuran-3-ol] | 
7 | 5 | 268 | CC(C)(O)Cc1cnn(-c2ccc(-c3ccc(-c4nc5nc(O[C@@H]6CO[C@H](CO)[C@H]6O)[nH]c5cc4Cl)cc3)cc2)c1 [Example 6] | 
8 | 3 | 282 | OC[C@H]1OC[C@@H](Oc2nc3nc(-c4ccc(-c5ccc(-n6cnnn6)cc5)cc4)c(Cl)cc3[nH]2)[C@@H]1O [Example 7, (2R,3R,4R)-4-[[6-chloro-5-[4-[4-(tetrazol-1-yl)phenyl]phenyl]-1H-imidazo[4,5-b]pyridin-2-yl]oxy]-2-(hydroxymethyl)tetrahydrofuran-3-ol] | 
9 | 9 | 332 | CC(C)(O)Cn1cc2c(n1)CN(c1ccc(-c3nc4nc(O[C@@H]5CO[C@H](CO)[C@H]5O)[nH]c4cc3Cl)cc1)C2 [Example 8, (2R,3R,4R)-4-[[6-chloro-5-[4-[2-(2-hydroxy-2-methyl-propy)-4,6-dihydropyrrolo[3,4-c]pyrazol-5-yl]phenyl]-1H-imidazo[4,5-b]pyridin-2-yl]oxy]-2-(hydroxymethyl)-tetrahydrofuran-3-ol; 2,2,2-trifluoroacetic acid] | 
10 | 11 | 294 | CC(C)(F)Cn1cc2c(n1)CN(c1ccc(-c3nc4nc(O[C@@H]5CO[C@H](CO)[C@H]5O)[nH]c4cc3Cl)cc1)C2 [Example 9, (2R,3R,4R)-4-[[6-chloro-5-[4-[2-(2-fluoro-2-methyl-propyl)-4,6-dihydropyrrolo[3,4-c]pyrazol-5-yl]phenyl]-1H-imidazo[4,5-b]pyridin-2-yl]oxy]-2-(hydroxymethyl)tetrahydrofuran-3-ol] | 
11 | 3650 | 209 | OC[C@H]1OC[C@@H](Oc2nc3nc(-c4ccc(Br)cc4)c(Cl)cc3[nH]2)[C@@H]1O [Example 10, (2R,3R,4R)-4-[[5-(4-bromophenyl)-6-chloro-1H-imidazo[4,5-b]pyridin-2-yl]oxy]-2-(hydroxymethyl)tetrahydrofuran-3-ol] | 
12 | 332 | 313 | O=C(O)[C@H]1OC[C@@H](Oc2nc3nc(-c4ccc(-c5ccccc5)cc4)c(Cl)cc3[nH]2)[C@@H]1O [Example 12, (2S,3S,4R)-4-[[6-chloro-5-(4-phenylphenyl)-1H-imidazo[4,5-b]pyridin-2-yl]oxy]-3-hydroxy-tetrahydrofuran-2-carboxylic acid] | 
13 | 289 | 203 | C[C@]1(O)[C@@H](CO)OC[C@H]1Oc1nc2nc(-c3ccc(-c4ccccc4)cc3)c(Cl)cc2[nH]1 [Example 14, (2R,3S,4R)-4-[[6-chloro-5-(4-phenylphenyl)-1H-imidazo[4,5-b]pyridin-2-yl]oxy]-2-(hydroxymethyl)-3-methyl-tetrahydrofuran-3-ol] | 
14 | 32 | 294 | OC[C@H]1OC[C@@H](Oc2nc3nc(-c4ccc(-c5ccccc5F)cc4)c(Cl)cc3[nH]2)[C@@H]1O [Example 18] | 
15 | 126 | 231 | OC[C@H]1OC[C@@H](Oc2nc3nc(-c4ccc(-c5cccc(F)c5)cc4)c(Cl)cc3[nH]2)[C@@H]1O [Example 19] | 
16 | 8 | 242 | N#CCCn1nnnc1-c1ccc(-c2ccc(-c3nc4nc(O[C@@H]5CO[C@H](CO)[C@H]5O)[nH]c4cc3Cl)cc2)cc1 [Example 20] | 
17 | 85 | 307 | OC[C@H]1OC[C@@H](Oc2nc3nc(-c4ccc(-c5ccc(F)cc5F)cc4)c(Cl)cc3[nH]2)[C@@H]1O [Example 21] | 
18 | 5 | 252 | OC[C@H]1OC[C@@H](Oc2nc3nc(-c4ccc(-c5ccc(N6CCOCC6)cc5)cc4)c(Cl)cc3[nH]2)[C@@H]1O [Example 22] | 
19 | 38 | 231 | OC[C@H]1OC[C@@H](Oc2nc3nc(-c4ccc(-c5ccc(F)cc5)cc4)c(Cl)cc3[nH]2)[C@@H]1O [Example 23] | 
